In the NIST ThermoML archive (doi:10.1021/je9003806):

Settings: 101.33 kPa, Liquid

CCOC(=O)CC(=O)OCC [diethyl 1,3-propanedioate]
Settings	mass density [kg/m3]
278.15 K	1071.04
288.14 K	1060.33
298.15 K	1049.6
313.15 K	1033.5
328.15 K	1017.34
338.15 K	1006.5
348.15 K	995.631
358.15 K	984.697
